Data taken from patent US20230165798A1, “MACROCYCLIC LACTONE FORMULATIONS, METHODS OF THEIR PREPARATION AND USE OF THE FORMULATIONS IN TREATING PATHOLOGIES SECONDARY TO OPHTHALMIC PARASITES” (Hovione Scientia, priority 2018, published 2023).

Experiments:
[1] = Particle size D90 by laser diffraction before and after Gamma irradiation; type: physicochemical
Procedure: (§1) The solid-state characterization of the spray dried amorphous ivermectin solid dispersions of Examples 1-3 prepared by the traditional spray drying process were evaluated by Scanning Electronic Microscopy (SEM) (Phenom ProX SEM), Differential Scanning calorimetry (DSC) (TA Instruments), Laser diffraction (Sympatec HELOS/RODOS, Germany) employing the rotary feeder and R1 lens, X-Ray Powder Diffraction (Pan Analytical), Raman Spectroscopy (Witec) and High Performance Liquid Chromatography (Waters). FIG. 1 is a scanning electron microscopic picture of the amorphous solid dispersion of Example 1 (ivermectin and PVP-VA-64). FIG. 2 is a scanning electron microscopic image of the amorphous solid dispersion of Example 2 (ivermectin and PVP K-30). FIG. 3 is a scanning electron microscopic picture of the amorphous solid dispersion of Example 3 (ivermectin and HPMC E4M). FIGS. 1-3 are at a magnification of 6000×. FIGS. 4-6 are thermograms of the ASD of Examples 1-3 obtained by differential scanning calorimetry. FIGS. 7-9 are diffractograms of the ASD of Examples 1-3. […] FIGS. 10 and 11 are Raman spectrums for ivermectin, the polymer PVP VA-64 and mixtures of the two (FIG. 10) and ivermectin, the polymer PVP K-30 and mixtures of the two (FIG. 11). […] FIG. 10 includes ratios of ivermectin to PVP VA-64 at ratios of 1:1 and 1:2 and FIG. 11 includes ratios of ivermectin to PVP K-30 at ratios of 1:1, 1:3, and 2:3.
(§2) Table 4 provides a summary of the characterizations (HPLC, XRPD and particle size) of ivermectin and of the amorphous solid dispersion of Example 1 (PVP-VA 64), Example 2 (PVP K-30) and Example 3 (HPMC E4M) prior to irradiation and after irradiation. Preliminary trials of sterilization by gamma irradiation were successfully completed in the solid material of ivermectin alone and ASDs. The amorphous form of the ASDs was not affected by gamma irradiation.

[2] = XRPD polymorphic form before and after Gamma irradiation; type: physicochemical
Procedure: as §1
The inventors have also determined that use of the polymer in the amorphous solid dispersion of ivermectin protects the ivermectin from degradation that occurs during Gamma irradiation, heat sterilization or e-beam sterilization. Ophthalmic formulations must be sterilized and Gamma irradiation, heat sterilization or e-beam sterilization are suitable methods for sterilization because other methods, such as filtration, are not suitable for a suspension formulation. […] The ASDs were analyzed by XRPD and HPLC to determine if the Gamma irradiation changed the ivermectin polymorphic form and degradation respectively. […]

[3] = system: TNF-α, IL-1, and IL-6 (lipopolysaccharide (LPS)-induced cytokines); conditions: through NF-κB; cited from earlier work
[4] = HPLC assay of ivermectin before and after Gamma irradiation; type: physicochemical
Text: The inventors have also determined that use of the polymer in the amorphous solid dispersion of ivermectin protects the ivermectin from degradation that occurs during Gamma irradiation, heat sterilization or e-beam sterilization. Ophthalmic formulations must be sterilized and Gamma irradiation, heat sterilization or e-beam sterilization are suitable methods for sterilization because other methods, such as filtration, are not suitable for a suspension formulation. The amorphous solid dispersions for Examples 1-3 were tested to determine the extent that the polymer protects the ivermectin during Gamma irradiation. For preliminary tests, the amorphous ivermectin solid dispersions were sterilized by Gamma irradiation at 25 kGy for 22 hours in a Precisa 22 equipment. The ASDs were analyzed by XRPD and HPLC to determine if the Gamma irradiation changed the ivermectin polymorphic form and degradation respectively.
The assay of the ivermectin on the amorphous solid dispersion was performed before, 1 week and 1 month after the application of Gamma irradiation. Preliminary trials of sterilization by gamma irradiation were successfully completed in the solid material of ivermectin alone and ASDs.
as §2

demodex = conditions: oral ivermectin, 19 subjects, cited from earlier work
[5] = Visual solubility in artificial sebum; type: physicochemical; conditions: 24 h of mixing with a magnetic stirrer at room temperature, same amount of ivermectin
Procedure: Some polymers have a capacity to improve the solubility of the ivermectin in the local region of application.
The sebum with the amorphous ivermectin dispersions remains clear (solubilized) after 24 h of mixing with a magnetic stirrer at room temperature, and without polymers the sebum continued opaque (ivermectin in suspension—not solubilized) after the addiction of the both forms of ivermectin (crystalline or amorphous).

Compound	D90 After irradiation (T = 1 week) ([1]; 1 week after Gamma irradiation)	D90 After irradiation (2 M) ([1]; after Gamma irradiation, cells marked (2 M) in the T = 1 month column)	D90 Before irradiation ([1]; before irradiation)	XRPD After irradiation (T = 1 month) ([2]; 1 month after Gamma irradiation)	XRPD After irradiation (T = 1 week) ([2]; 1 week after Gamma irradiation)	XRPD Before irradiation ([2]; before irradiation)	Change in TNF-α, IL-1, and IL-6 [3]	% API (After: 1 month) ([4]; HPLC, 1 month after Gamma irradiation at 25 kGy for 22 hours)	% API (After: 1 week) ([4]; HPLC, 1 week after Gamma irradiation at 25 kGy for 22 hours)	% API (Before) ([4]; HPLC, before Gamma irradiation)	HPLC (Assay IVM) After irradiation (T = 1 month) ([4]; Table 4, 1 month after Gamma irradiation)	HPLC (Assay IVM) After irradiation (T = 1 week) ([4]; Table 4, 1 week after Gamma irradiation)	HPLC (Assay IVM) Before irradiation ([4]; Table 4, before irradiation)	% API degraded ([4]; before vs 1 month after Gamma irradiation)	Eradication of the demodex (demodex; by month 3 of treatment)	Improvement in signs of ocular inflammation (demodex)	Symptomatic improvement (demodex)	Solubility (visual inspection) [5]
CC[C@H](C)[C@H]1O[C@]2(CC[C@@H]1C)C[C@@H]1C[C@@H](C/C=C(\C)[C@@H](O[C@H]3C[C@H](OC)[C@@H](O[C@H]4C[C@H](OC)[C@@H](O)[C@H](C)O4)[C@H](C)O3)[C@@H](C)/C=C/C=C3\CO[C@@H]4[C@H](O)C(C)=C[C@@H](C(=O)O1)[C@]34O)O2 [IVM, ivermectin]	2.53 μm	2.41 (2 M) μm	2.66 μm	Amorphous	Amorphous	Amorphous	decrease	84.3%	86.9%	95.2%	84.26%	86.9%	95.2%	10.9%	All subjects had eradication of the demodex	all subjects had an improvement	All but two subjects improved symptomatically	
ivermectin [Crystalline ivermectin]																		opaque
